In PMC10829540, “Natural transaminase fusions for biocatalysis” (RSC Advances, 2024):

Assays:
PpKTTAm = target: T1, PpKTTAm (Pseudomonas putida, UniProt Q88J67); assay: HPLC conversion of […] to […], non-linear regression to substrate inhibition equation; format: biochemical; settings: apparent, amine donor L-glutamate, 1.0 mM PLP, HEPES pH 7.7, 10% DMSO, 30 °C (conditions of Fig. 7F)
T1 construct: gene PP_2782; truncated to N-terminal TAm domain (assigned residues 1-526); N-terminal His6-tag, pET-28a(+), E. coli
T1 sequence (Q88J67 1-526): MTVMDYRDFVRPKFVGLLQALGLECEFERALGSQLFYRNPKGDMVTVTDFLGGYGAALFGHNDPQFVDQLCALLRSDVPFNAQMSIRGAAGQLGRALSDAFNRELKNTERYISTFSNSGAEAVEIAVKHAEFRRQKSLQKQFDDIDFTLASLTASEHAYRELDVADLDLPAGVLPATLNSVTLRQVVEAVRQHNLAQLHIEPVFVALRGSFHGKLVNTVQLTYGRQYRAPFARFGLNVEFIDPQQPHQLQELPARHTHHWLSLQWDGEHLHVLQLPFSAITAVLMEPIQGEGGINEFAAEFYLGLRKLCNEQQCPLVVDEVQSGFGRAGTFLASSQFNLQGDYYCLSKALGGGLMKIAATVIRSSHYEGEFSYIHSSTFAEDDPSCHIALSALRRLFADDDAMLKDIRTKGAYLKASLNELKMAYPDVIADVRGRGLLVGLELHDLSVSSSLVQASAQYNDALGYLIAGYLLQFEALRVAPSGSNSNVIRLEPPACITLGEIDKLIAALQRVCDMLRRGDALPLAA

TfFusion = target: T2, TfFusion (Thermincola carboxydiphila, UniProt A0A0L6W1G2); assay: as above; format: biochemical; settings: apparent, amine donor L-glutamate, 1.0 mM PLP, HEPES pH 7.7, 10% DMSO, 50 °C (conditions of Fig. 7F)
T2 construct: gene Tfer_2018; full-length fusion; N-terminal His6-tag, pET-28a(+), E. coli

PpKTFusion = target: T3, PpKTFusion (Pseudomonas putida, UniProt Q88J67); assay: as above; format: biochemical; settings: apparent, amine donor L-glutamate, 1.0 mM PLP, HEPES pH 7.7, 10% DMSO, 30 °C (conditions of Fig. 7F)
T3 construct: gene PP_2782; full-length fusion (N-terminal TAm 1-526, linker 527-562, C-terminal reductase 563-959); N-terminal His6-tag, pET-28a(+), E. coli
T3 sequence (Q88J67 1-959): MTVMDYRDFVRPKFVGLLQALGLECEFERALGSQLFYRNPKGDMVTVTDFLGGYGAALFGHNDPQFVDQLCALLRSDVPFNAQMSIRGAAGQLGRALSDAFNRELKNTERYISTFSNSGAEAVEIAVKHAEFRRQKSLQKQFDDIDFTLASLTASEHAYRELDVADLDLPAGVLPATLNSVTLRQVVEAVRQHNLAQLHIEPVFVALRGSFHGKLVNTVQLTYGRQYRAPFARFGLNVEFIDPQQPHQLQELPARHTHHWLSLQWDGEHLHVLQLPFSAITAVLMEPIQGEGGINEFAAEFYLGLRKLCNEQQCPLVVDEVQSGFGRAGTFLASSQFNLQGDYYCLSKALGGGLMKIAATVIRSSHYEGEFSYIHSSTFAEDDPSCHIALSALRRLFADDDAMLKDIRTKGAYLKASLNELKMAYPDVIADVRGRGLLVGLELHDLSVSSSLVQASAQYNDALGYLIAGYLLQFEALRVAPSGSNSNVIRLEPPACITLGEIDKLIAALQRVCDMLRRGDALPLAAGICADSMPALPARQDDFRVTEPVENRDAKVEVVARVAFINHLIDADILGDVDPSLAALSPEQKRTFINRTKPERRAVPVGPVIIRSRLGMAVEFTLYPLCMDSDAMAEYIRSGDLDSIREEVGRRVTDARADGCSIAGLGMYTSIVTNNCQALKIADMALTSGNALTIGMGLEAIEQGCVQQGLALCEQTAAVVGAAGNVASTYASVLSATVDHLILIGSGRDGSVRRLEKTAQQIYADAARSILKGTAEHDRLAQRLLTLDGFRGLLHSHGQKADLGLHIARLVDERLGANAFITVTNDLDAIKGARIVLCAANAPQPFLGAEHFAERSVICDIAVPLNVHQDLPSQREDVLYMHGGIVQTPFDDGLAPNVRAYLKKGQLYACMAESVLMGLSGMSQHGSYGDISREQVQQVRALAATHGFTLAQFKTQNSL

TfTAm = target: T4, TfTAm (Thermincola carboxydiphila, UniProt A0A0L6W1G2); assay: HPLC conversion of […] to […], non-linear regression; format: biochemical; settings: apparent; amine acceptor 3-phenylpropionaldehyde (10 mM), 1.0 mM PLP, HEPES pH 7.7, 10% DMSO, 50 °C (conditions of Fig. 7E); read-out: K ^app m
T4 construct: gene Tfer_2018; truncated to N-terminal TAm domain (borders only in ESI); N-terminal His6-tag, pET-28a(+), E. coli

purified protein [1] = substrate: N[C@@H](CCC(=O)O)C(=O)O; assay: purified protein; format: biochemical, Thermincola carboxydiphila; settings: apparent, amine acceptor 3-phenylpropionaldehyde (10 mM), 1.0 mM PLP, HEPES pH 7.7, 10% DMSO, 50 °C (conditions of Fig. 7E)
purified protein [2] = substrate: O=CCCc1ccccc1; assay: purified protein; format: biochemical, Thermincola carboxydiphila; settings: apparent, amine donor L-glutamate, 1.0 mM PLP, HEPES pH 7.7, 10% DMSO, 50 °C (conditions of Fig. 7F)

For `O=CCCc1ccccc1` [compound 13, 3-phenylpropionaldehyde], the “K ^app i” value (PpKTTAm) was 5.13 µM, the “K ^app i” value (TfFusion) was 52.92 µM and the “K ^app i” value (PpKTFusion) was 3.37 µM.

Work on `N[C@@H](CCC(=O)O)C(=O)O` [compound 36, L-glutamate] yielded a Km (TfTAm) of 9.57 mM.

B1: TfFusion (Thermincola carboxydiphila) (protein)
chain: MKFSSLNPTMDKLFECFKLDVAYVKGEGTYLYDQAGNKYLDFIAQYGAVPFGYNPPELVAAAKKYFDLSLPSMVQPSIPVKAVELAEMLLQLAPGEMAQATFCQSGAEAVEVAIKLARSTTGKPKILSTKNSFHGKTMGALSATGRDVYQKPFFTPVPGFEHIPFGDLDMLENKMRTEGKQIAAFLVEPIQGEGGIIVPPEGYLKNAEIICRKYGVLLAVDEIQTGLGRTGELFACDREGVEPDILLLSKALGGGLVPLGVCLSTRQAWNEEFGRLHSSTFANNNFTCAIGLAVLNKLLENGRQLINNAKSAGNYLLKNLEDINRQYPGVIKEIRGRGLMLGLEFNEFDGSESFSMKYLAEQGGFSPLLAGYLLNVHKVRVAPFLNNPMTLRLQPSLTVATVEIDRALHGLERVVKALYYQDHCELYSYIIGKEPGPIRDFRSEKKAVTGSELLPEEKPTEKFAFLIHYPSSEDVIKNNPSFKKASKDILEKLIDWEASLDAEPEVIVHLPAIKSKAGKIAEGWLIGIPYSGRHMMEMPRKDAVKVLVTALDKAKALGARIVGLGAYTSVVSRGGSDLQGKGIAVTSGNSYTIATAFDALIEGARLMGIDPAESTGCVIGATGSIGRVCAILLAEEIDKLVLVGNPEKEKTSLRRMEQLADEIYTRAFREILAYKGKVAKIKGIAKWLKGFLDRKRKDDPEVWNKLLTALENQGFSINGYIHENLAAKGKYSNPPVKITVNIKQALLQSDLIISASNSTNHLIGPGHLKPGSVICDVARPPDVSEAVLEQRKDVLVIEGGLVQYPDDICFGQNMGYEPGVNMACLSETMLLALEGTYRDFSIGLKIPVENVYYLRELAQRHGFKLATPWNKNGGVTPEVARMIKEAALKNENVEKIKTPKSS
notes: full-length fusion; N-terminal His6-tag, pET-28a(+), E. coli
In the case of B1, the Km (purified protein [1]) is reported as 16.44 mM, the kcat (purified protein [1]) is reported as 0.2672 s⁻¹ and the Km (purified protein [2]) is reported as 50.61 mM. The kcat (purified protein [2]) was 1.171 s⁻¹.
